# Patent US20180265515A1 (Genentech, Inc., priority 2015, published 2018)
# Key:
# [1] = system: JAK1-dependent STAT6 phosphorylation downstream of IL-13 stimulation in BEAS-2B human bronchial epithelial cells; experiment: JAK1 pathway assay in BEAS-2B cells (IL-13 stimulated STAT6 phosphorylation, MSD); format: cell-based; details: read-out: P-STAT6 BEAS2B + IL13 IC50
# Summary of the method: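 BEAS-2B human bronchial epithelial cells, plated the day before in complete growth medium, were preincubated with compound for 1 hr at 37° C (0.2% DMSO final), then stimulated with IL-13 at its EC90 for 15 min. STAT6 phosphorylation in lysates was read by MSD; EC50 was taken as 50% inhibition versus DMSO control.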
# [2] = molecular target: T1, isolated recombinant JAK2 kinase domain (Homo sapiens, UniProt O60674); experiment: JAK2 enzyme assay (Caliper LabChip, Ki); format: biochemical; details: 25 μM ATP
# T1 construct: The activity of the isolated recombinant JAK1 and JAK2 kinase domain was measured
# Summary of the method: (§1)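 Ki values fitted with Morrison tight-binding equation adjusted for ATP-competitive inhibition, using product-to-total peptide ratio read by Caliper LabChip. Reactions: isolated JAK1 or JAK2 kinase domain with N-terminal 5-carboxyfluorescein JAK3-derived peptide, 22° C for 30 min, quenched by EDTA.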
# [3] = molecular target: T2, isolated recombinant JAK1 kinase domain (Homo sapiens, UniProt P23458); experiment: JAK1 enzyme assay (Caliper LabChip, Ki); format: biochemical; details: recombinant JAK1 kinase domain, 25 μM ATP
# T2 construct: The activity of the isolated recombinant JAK1 and JAK2 kinase domain was measured
# Summary of the method: as §1
# T2 sequence (P23458 875-1153 limits assumed): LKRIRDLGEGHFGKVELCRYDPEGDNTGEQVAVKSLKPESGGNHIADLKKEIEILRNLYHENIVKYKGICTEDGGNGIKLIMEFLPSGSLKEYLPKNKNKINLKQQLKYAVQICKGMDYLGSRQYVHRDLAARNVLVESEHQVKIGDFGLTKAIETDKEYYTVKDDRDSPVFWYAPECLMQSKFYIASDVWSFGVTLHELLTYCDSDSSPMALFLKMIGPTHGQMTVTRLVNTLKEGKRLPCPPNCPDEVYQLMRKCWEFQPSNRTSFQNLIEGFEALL
# T1 sequence (O60674 849-1124 limits assumed): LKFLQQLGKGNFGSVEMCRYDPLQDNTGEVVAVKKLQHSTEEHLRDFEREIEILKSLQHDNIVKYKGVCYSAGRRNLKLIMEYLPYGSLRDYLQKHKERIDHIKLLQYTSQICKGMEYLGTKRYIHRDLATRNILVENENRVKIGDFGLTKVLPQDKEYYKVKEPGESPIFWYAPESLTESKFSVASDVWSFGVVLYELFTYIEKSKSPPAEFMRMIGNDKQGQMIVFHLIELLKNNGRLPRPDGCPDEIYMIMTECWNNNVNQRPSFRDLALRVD
SMILES,Ki [2] [nM],Ki [3] [nM],IC50 [1] [nM]
"CC(C)Sc1ccc(OC(F)F)c(-c2nn(CC(=O)N3CCC(N4CCCC(C#N)C4)CC3)cc2NC(=O)c2cnn3cccnc23)c1 (stereo not drawn) [Example 107, N-[1-[2-[4-(3-cyano-1-piperidyl)-1-piperidyl]-2-oxo-ethyl]-3-[2-(difluoromethoxy)-5-isopropylsulfanyl-phenyl]pyrazol-4-yl]pyrazolo[1,5-a]pyrimidine-3-carboxamide]",1.7,0.75,56
"CC(C)Sc1ccc(OC(F)F)c(-c2nn(CC(=O)N3CCC(N(C)C4COC4)CC3)cc2NC(=O)c2cnn3cccnc23)c1 [Example 110, N-[3-[2-(difluoromethoxy)-5-isopropylsulfanyl-phenyl]-1-[2-[4-[methyl(oxetan-3-yl)amino]-1-piperidyl]-2-oxo-ethyl]pyrazol-4-yl]pyrazolo[1,5-a]pyrimidine-3-carboxamide]",1,0.41,27
"CC(C)Sc1ccc(OC(F)F)c(-c2nn(CC(=O)N3CCC(N4CCSCC4)CC3)cc2NC(=O)c2cnn3cccnc23)c1 [Example 111, N-[3-[2-(difluoromethoxy)-5-isopropylsulfanyl-phenyl]-1-[2-oxo-2-(4-thiomorpholino-1-piperidyl)ethyl]pyrazol-4-yl]pyrazolo[1,5-a]pyrimidine-3-carboxamide]",1,0.38,19
"CC(C)Sc1ccc(OC(F)F)c(-c2nn(CCN)cc2NC(=O)c2cnn3cccnc23)c1 [Example 112, N-[1-(2-aminoethyl)-3-[2-(difluoromethoxy)-5-isopropylsulfanyl-phenyl]pyrazol-4-yl]pyrazolo[1,5-a]pyrimidine-3-carboxamide]",0.39,0.39,18

# The next lines start with results.
Ki [2] [nM],Ki [3] [nM],SMILES,IC50 [1] [nM]
1.2,0.42,"CC(C)Sc1ccc(OC(F)F)c(-c2nn(CC(=O)N3CCC(NCC(=O)N(C)C)CC3)cc2NC(=O)c2cnn3cccnc23)c1 [Example 104, N-[3-[2-(difluoromethoxy)-5-isopropylsulfanyl-phenyl]-1-[2-[4-[[2-(dimethylamino)-2-oxo-ethyl]amino]-1-piperidyl]-2-oxo-ethyl]pyrazol-4-yl]pyrazolo[1,5-a]pyrimidine-3-carboxamide]",160
1.3,0.43,"CC(C)Sc1ccc(OC(F)F)c(-c2nn(CC(=O)N3CCC(N(C)CC(=O)N(C)C)CC3)cc2NC(=O)c2cnn3cccnc23)c1 [Example 105, N-[3-[2-(difluoromethoxy)-5-isopropylsulfanyl-phenyl]-1-[2-[4-[[2-(dimethylamino)-2-oxo-ethyl]-methyl-amino]-1-piperidyl]-2-oxo-ethyl]pyrazol-4-yl]pyrazolo[1,5-a]pyrimidine-3-carboxamide]",72
0.79,0.4,"CC(C)Sc1ccc(OC(F)F)c(-c2nn(CC(=O)N3CCC(N4CCN(C)C(=O)C4)CC3)cc2NC(=O)c2cnn3cccnc23)c1 [Example 106, N-[3-[2-(difluoromethoxy)-5-isopropylsulfanyl-phenyl]-1-[2-[4-(4-methyl-3-oxo-piperazin-1-yl)-1-piperidyl]-2-oxo-ethyl]pyrazol-4-yl]pyrazolo[1,5-a]pyrimidine-3-carboxamide]",110
0.94,0.37,"CC(C)Sc1ccc(OC(F)F)c(-c2nn(CC(=O)N3CCC(N4CCNC(=O)C4)CC3)cc2NC(=O)c2cnn3cccnc23)c1 [Example 108, N-[3-[2-(difluoromethoxy)-5-isopropylsulfanyl-phenyl]-1-[2-oxo-2-[4-(3-oxopiperazin-1-yl)-1-piperidyl]ethyl]pyrazol-4-yl]pyrazolo[1,5-a]pyrimidine-3-carboxamide]",850
0.78,0.41,"CC(C)Sc1ccc(OC(F)F)c(-c2nn(CC(=O)N3CCN(CCN4CCOCC4)CC3)cc2NC(=O)c2cnn3cccnc23)c1 [Example 109, N-[3-[2-(difluoromethoxy)-5-isopropylsulfanyl-phenyl]-1-[2-[4-(2-morpholinoethyl)piperazin-1-yl]-2-oxo-ethyl]pyrazol-4-yl]pyrazolo[1,5-a]pyrimidine-3-carboxamide]",33
